Values after ≈ are worked out from the molar mass of the structure shown. Where a SMILES comes first, the peptide text is derived from it.
Assays:
[1] = tested on: Candida albicans (NCPF 1467); assay type: cell-based
Experimental: (§1) The minimal inhibitory concentrations (MICs) and minimum bactericidal concentrations (MBCs) were evaluated to determine the antimicrobial activity of synthetic peptides. The microorganisms employed in the study are two kinds of Gram-negative bacteria, Escherichia coli (NCTC 10418) and Pseudomonas aeruginosa (ATCC 27853), three kinds of Gram-positive bacteria, Staphylococcus aureus (NCTC 10788), Methicillin-resistant Staphylococcus aureus (MRSA, ATCC 12493) and Enterococcus faecalis (NCTC 12697) and a yeast, Candida albicans (NCPF 1467), as indicated previously. […] The sterilised broth medium was used as the positive control and the microorganism cultured in the medium only was treated as the negative control. […] The MBC results were defined as the lowest bactericidal concentrations of peptide. The antimicrobial activity of peptides was tested by monitoring the absorbance at 550 nm using an ELISA plate reader (Biolise BioTek EL808, Winooski, VT, USA).

[2] = tested on: Staphylococcus aureus (NCTC 10788); assay type: cell-based
Experimental: as §1

[3] = tested on: Methicillin-resistant Staphylococcus aureus (MRSA, ATCC 12493); assay type: cell-based
Experimental: as §1

[4] = tested on: Escherichia coli (NCTC 10418); assay type: cell-based
Experimental: as §1

[5] = tested on: Enterococcus faecalis (NCTC 12697); assay type: cell-based
Experimental: as §1

[6] = tested on: Pseudomonas aeruginosa (ATCC 27853); assay type: cell-based
Experimental: as §1

[7] = tested on: horse red blood cells; test: Haemolysis assay and therapeutic index; details: 2% horse red blood cells in PBS, 2 h, 37 °C, absorbance 570 nm; best-fitted curve
Experimental: The haemolytic activity of synthetic peptides was determined using the horse red blood cells that were extracted from the de-fibroblast whole horse blood (TCS Biosciences Ltd. Buckingham, UK). […] Briefly, the red blood cells were harvested and washed using PBS until all broken red blood cells were removed. Then, a 2% cell suspension was prepared using PBS. The peptide concentrations were set as antimicrobial activity assay and mixed with the red blood cells in the microcentrifuge tubes. After a 2 h-incubation at 37 °C, the tubes were centrifuged and the suspension was transferred into a clear 96 well plate. The absorbance of released haemoglobin in the suspension was detected at 570 nm by a plate reader. Besides, the red blood cells treated with PBS and 1% Triton X-100 were used as the negative and positive controls, respectively. […] The therapeutic index (TI) was further determined as below:(1) TI=HC50/product of n MICsn,

[8] = tested on: Galleria mellonella larvae; test: Toxicity to uninfected Galleria mellonella larvae; assay type: in vivo; details: uninfected G. mellonella larvae injected with drug; n = 30 per group; vancomycin 20 mg/kg
Experimental: The in vivo study of antimicrobial activity of the peptides was evaluated using the larvae of Galleria mellonella, which was described in the previous study with minor modifications. The larvae of Galleria mellonella (250 ± 25 mg; Livefood UK Ltd., Rooks Bridge, UK) were selected. The MRSA culture was prepared the same way as the antimicrobial activity assay. Then, MRSA cells were collected and washed, and further diluted to 10^8 CFU/mL in the saline. Ten µL of MRSA suspension was injected to the larvae and placed in a petri dish. After 2 h, the MRSA infected larvae were administrated with 10 µL of peptides (25 mg/kg, 50 mg/kg) by injection. Saline and vancomycin (20 mg/kg) (Sigma-Aldrich, UK) were used as the negative control and positive control, respectively. Each sample group contained 10 larvae, and the experiment was repeated three times (30 larvae for each group in total). The survival curves were achieved using Prism (Version 6.0; GraphPad Software Inc., San Diego, CA, USA) and the log-rank test was employed to analyze the significance between the different treatments and the controls. * (p < 0.05), ** (p < 0.01) and *** (p < 0.001) represent statistical significance.
Figure A9 Larvae without any MRSA infection were injected with peptides and vancomycin respectively to access the cytotoxicity of the drugs to larvae bodies. […] Effect of treatment of G. mellonella larvae (n = 30 for each group) without any infection and only treated with 5 µL vancomycin (20 mg/kg), OSd, OSe and OSf.

Row | MIC ([1]; NCPF 1467, 24 h) [µM] | MIC ([2]; NCTC 10788, 24 h) [µM] | MIC ([3]; ATCC 12493, 24 h) [µM] | MIC ([4]; NCTC 10418, 24 h) [µM] | MIC ([5]; NCTC 12697, 24 h) [µM] | MIC ([6]; ATCC 27853, 24 h) [µM] | SMILES | MBC ([1]; NCPF 1467, 18 h) [µM] | MBC ([2]; NCTC 10788, 18 h) [µM] | MBC ([3]; ATCC 12493, 18 h) [µM] | MBC ([4]; NCTC 10418, 18 h) [µM] | MBC ([5]; NCTC 12697, 18 h) [µM] | MBC ([6]; ATCC 27853, 18 h) [µM] | HC50 (concentration causing 50% haemolysis of the red blood cells) [7] [µM] | toxicity to larvae without MRSA infection [8]
1 | 512 (≈ 592 µg/mL) | 256 (≈ 296 µg/mL) | > 512 | > 512 | > 512 | > 512 | CC[C@H](C)[C@H](NC(=O)CNC(=O)[C@@H]1CCCN1C(=O)[C@H](CC(C)C)NC(=O)[C@@H](N)Cc1ccccc1)C(=O)N[C@@H](CC(C)C)C(=O)N[C@@H](CCCCN)C(=O)N[C@H](C(=O)N[C@@H](C)C(=O)N[C@@H](C)C(=O)N[C@@H](CCCCN)C(N)=O)C(C)C [OSb] (H-FLPGILKVAAK-NH2) | > 512 | > 512 | > 512 | > 512 | > 512 | > 512 | 381.4 | 
2 |  |  |  |  |  |  | CN[C@H](CC(C)C)C(=O)N[C@H]1C(=O)N[C@@H](CC(N)=O)C(=O)N[C@H]2C(=O)N[C@H]3C(=O)N[C@H](C(=O)N[C@H](C(=O)O)c4cc(O)cc(O)c4-c4cc3ccc4O)[C@H](O)c3ccc(c(Cl)c3)Oc3cc2cc(c3O[C@@H]2O[C@H](CO)[C@@H](O)[C@H](O)[C@H]2O[C@H]2C[C@](C)(N)[C@H](O)[C@H](C)O2)Oc2ccc(cc2Cl)[C@H]1O [vancomycin, reference compound] |  |  |  |  |  |  |  | No noticeable cytotoxicity
